Assay results from ChEMBL document CHEMBL5291721, “A preclinical secondary pharmacology resource illuminates target-adverse drug reaction associations of marketed drugs” (Nat Commun, 2023).

How the values were obtained:
Mu-type opioid receptor = Mu-type opioid receptor (Homo sapiens, UniProt P35372)
Adenosine receptor A1 = biological target: T1, Adenosine receptor A1 (Homo sapiens, UniProt P30542)
T1 sequence (P30542 whole entry): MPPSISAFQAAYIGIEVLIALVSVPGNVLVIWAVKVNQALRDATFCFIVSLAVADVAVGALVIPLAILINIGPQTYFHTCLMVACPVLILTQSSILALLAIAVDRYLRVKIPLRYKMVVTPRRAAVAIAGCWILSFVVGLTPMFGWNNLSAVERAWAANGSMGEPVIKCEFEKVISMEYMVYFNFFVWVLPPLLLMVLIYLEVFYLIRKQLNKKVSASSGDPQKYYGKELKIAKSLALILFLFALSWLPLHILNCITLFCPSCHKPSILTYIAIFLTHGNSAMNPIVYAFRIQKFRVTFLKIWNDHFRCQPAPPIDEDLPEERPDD

[1] = biological target: T2, Cholecystokinin receptor type A (Homo sapiens, UniProt P32238)
T2 sequence (P32238 whole entry): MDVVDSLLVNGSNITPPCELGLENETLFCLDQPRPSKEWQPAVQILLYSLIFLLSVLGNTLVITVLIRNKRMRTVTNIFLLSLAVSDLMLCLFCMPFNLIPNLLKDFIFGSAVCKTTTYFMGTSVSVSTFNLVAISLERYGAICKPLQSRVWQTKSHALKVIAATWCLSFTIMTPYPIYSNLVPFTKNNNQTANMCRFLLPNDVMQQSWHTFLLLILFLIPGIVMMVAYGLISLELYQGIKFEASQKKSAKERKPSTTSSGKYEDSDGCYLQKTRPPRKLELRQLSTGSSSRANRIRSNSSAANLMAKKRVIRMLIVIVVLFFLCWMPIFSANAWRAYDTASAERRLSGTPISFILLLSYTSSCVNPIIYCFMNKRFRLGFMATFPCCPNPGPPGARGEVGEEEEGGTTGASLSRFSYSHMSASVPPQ

[2] = biological target: T3, Gastrin/cholecystokinin type B receptor (Homo sapiens, UniProt P32239)
T3 sequence (P32239 whole entry): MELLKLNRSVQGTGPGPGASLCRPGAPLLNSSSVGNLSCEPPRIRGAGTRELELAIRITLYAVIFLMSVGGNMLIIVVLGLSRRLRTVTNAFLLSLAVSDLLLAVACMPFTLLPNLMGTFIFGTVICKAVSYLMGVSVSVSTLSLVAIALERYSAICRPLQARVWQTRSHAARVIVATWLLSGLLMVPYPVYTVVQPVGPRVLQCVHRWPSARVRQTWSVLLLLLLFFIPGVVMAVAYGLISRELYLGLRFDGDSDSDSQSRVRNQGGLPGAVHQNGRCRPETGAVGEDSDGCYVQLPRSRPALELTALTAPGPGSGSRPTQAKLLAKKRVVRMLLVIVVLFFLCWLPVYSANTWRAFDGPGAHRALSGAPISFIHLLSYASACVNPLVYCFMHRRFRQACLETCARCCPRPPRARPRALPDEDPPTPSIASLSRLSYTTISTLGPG

Endothelin-1 receptor = biological target: T4, Endothelin-1 receptor (Homo sapiens, UniProt P25101)
T4 sequence (P25101 whole entry): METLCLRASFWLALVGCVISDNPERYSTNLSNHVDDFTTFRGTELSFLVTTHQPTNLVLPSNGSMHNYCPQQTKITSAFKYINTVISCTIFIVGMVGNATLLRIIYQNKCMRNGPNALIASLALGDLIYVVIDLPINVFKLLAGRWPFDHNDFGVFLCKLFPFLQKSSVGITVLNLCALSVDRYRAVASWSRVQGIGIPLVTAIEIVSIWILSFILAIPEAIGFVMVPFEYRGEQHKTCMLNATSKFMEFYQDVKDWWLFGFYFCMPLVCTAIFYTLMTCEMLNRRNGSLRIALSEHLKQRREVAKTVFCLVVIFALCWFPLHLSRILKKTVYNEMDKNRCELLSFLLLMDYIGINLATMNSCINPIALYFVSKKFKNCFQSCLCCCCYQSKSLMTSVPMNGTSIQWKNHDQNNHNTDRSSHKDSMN

Progesterone receptor = biological target: T5, Progesterone receptor (Homo sapiens, UniProt P06401); assay type: functional
T5 sequence (P06401 whole entry): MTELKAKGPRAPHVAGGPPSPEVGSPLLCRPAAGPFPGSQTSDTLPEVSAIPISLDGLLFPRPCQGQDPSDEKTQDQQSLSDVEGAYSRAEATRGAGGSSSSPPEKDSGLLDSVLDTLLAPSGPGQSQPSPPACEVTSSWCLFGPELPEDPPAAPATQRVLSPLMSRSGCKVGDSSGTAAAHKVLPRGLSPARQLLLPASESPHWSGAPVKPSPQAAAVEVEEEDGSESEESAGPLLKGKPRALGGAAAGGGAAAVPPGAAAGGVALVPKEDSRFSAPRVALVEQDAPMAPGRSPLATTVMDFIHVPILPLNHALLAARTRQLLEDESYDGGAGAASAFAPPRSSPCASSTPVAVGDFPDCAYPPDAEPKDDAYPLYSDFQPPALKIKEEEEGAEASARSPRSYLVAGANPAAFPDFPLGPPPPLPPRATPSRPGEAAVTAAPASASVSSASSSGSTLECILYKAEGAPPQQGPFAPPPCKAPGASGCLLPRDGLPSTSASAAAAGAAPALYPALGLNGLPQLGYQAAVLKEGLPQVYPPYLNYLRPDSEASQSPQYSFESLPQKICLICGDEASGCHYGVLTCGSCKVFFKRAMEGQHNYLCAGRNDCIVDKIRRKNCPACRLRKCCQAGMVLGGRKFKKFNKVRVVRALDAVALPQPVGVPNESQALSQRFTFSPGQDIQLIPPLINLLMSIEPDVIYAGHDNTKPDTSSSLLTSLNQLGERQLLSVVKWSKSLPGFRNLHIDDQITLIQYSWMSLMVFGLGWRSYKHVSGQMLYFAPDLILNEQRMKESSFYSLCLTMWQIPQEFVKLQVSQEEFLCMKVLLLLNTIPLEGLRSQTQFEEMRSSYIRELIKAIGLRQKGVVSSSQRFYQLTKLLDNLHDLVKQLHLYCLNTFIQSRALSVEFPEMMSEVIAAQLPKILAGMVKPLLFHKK
Also: assay procedure not described here.

Sequence of Mu-type opioid receptor (P35372 whole entry): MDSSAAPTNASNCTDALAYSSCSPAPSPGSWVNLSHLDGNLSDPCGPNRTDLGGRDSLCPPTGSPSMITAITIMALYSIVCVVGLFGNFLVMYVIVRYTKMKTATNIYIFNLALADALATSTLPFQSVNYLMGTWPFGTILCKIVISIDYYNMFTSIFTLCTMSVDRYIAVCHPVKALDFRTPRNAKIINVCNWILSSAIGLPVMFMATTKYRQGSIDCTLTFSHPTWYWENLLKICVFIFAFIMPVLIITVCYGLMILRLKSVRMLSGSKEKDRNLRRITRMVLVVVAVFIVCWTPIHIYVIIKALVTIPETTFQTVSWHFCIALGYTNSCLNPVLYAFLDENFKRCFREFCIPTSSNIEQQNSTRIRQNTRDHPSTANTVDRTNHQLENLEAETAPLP

| SMILES | AC50 (Mu-type opioid receptor) [µM] | AC50 (Adenosine receptor A1) [µM] | AC50 [1] [µM] | AC50 [2] [µM] | AC50 (Endothelin-1 receptor) [µM] | AC50 (Progesterone receptor) [µM] |
| --- | --- | --- | --- | --- | --- | --- |
| O=C(O)c1cccc(-c2noc(-c3ccccc3F)n2)c1 | > 30 |  |  |  |  |  |
| NS(=O)(=O)c1cc(-c2nnn[nH]2)c(NCc2cccs2)cc1Cl [AZOSEMIDE] |  | > 30 | > 30 | > 30 | > 30 | > 30 |
| O=C(Cn1ccnc1[N+](=O)[O-])NCc1ccccc1 [BENZNIDAZOLE] |  | > 30 | > 30 | > 30 | > 30 | > 30 |
| C[N+](C)(C)CC(=O)O [BETAINE] |  | > 30 | > 30 | > 30 | > 30 | > 30 |
| CCCC(=O)N1CCCN(c2nc(N)c3cc(OC)c(OC)cc3n2)CC1 [BUNAZOSIN] |  | > 30 | > 30 | > 30 | > 30 | > 30 |
| C[N+](C)(C)CCOC(N)=O [CARBAMOYLCHOLINE] | > 30 | > 10 | > 10 |  |  | > 10 |
| N[C@@H](CSCC(=O)O)C(=O)O [CARBOCYSTEINE] |  | > 30 | > 30 | > 30 | > 30 | > 30 |
| CC(C)(N)Cc1ccc(Cl)cc1 [CHLORPHENTERMINE] | > 30 | > 30 | > 30 | > 30 | > 30 |  |
| CN(C)[C@@H]1C(O)=C(C(N)=O)C(=O)[C@@]2(O)C(O)=C3C(=O)c4c(O)ccc(Cl)c4[C@@H](O)[C@H]3C[C@@H]12 [DEMECLOCYCLINE] | > 30 | > 10 | > 10 |  |  |  |
| NS(=O)(=O)c1cc(Cl)c(Cl)c(S(N)(=O)=O)c1 [DICHLORPHENAMIDE] | > 30 | > 10 | > 10 |  |  | > 10 |
| O=C(Nc1ccccc1)OCC(CN1CCCCC1)OC(=O)Nc1ccccc1 (stereo unspecified) [DIPERODON] | 1.8 | > 30 | 15 | > 30 | > 30 |  |
| C=C1C[C@@H]2[C@H](CC[C@]3(C)C(=O)CC[C@@H]23)[C@@]2(C)C=CC(=O)C=C12 [EXEMESTANE] | > 30 | > 30 | > 30 | > 30 | > 30 |  |
| CC(C(O)c1ccc(O)cc1)N1CCC(Cc2ccccc2)CC1 (stereo unspecified) [IFENPRODIL] |  | > 30 | > 30 | > 30 | > 30 | > 30 |
| CS(=O)(=O)Nc1cc2occ(NC=O)c(=O)c2cc1Oc1ccccc1 [IGURATIMOD] |  |  |  |  |  | > 30 |
| CC(=O)N(CC(O)CO)c1c(I)c(C(=O)NCC(O)CO)c(I)c(C(=O)NCC(O)CO)c1I (stereo unspecified) [IOHEXOL] | > 30 | > 30 | > 30 | > 30 |  |  |
| CN(CCCN1c2ccccc2CCc2ccccc21)CC(=O)c1ccc(Cl)cc1 [LOFEPRAMINE] |  | > 30 | > 30 | > 30 | > 30 |  |
| CC(=O)O[C@]1(C(C)=O)CC[C@H]2[C@@H]3C[C@H](C)C4=CC(=O)CC[C@]4(C)[C@H]3CC[C@@]21C [MEDROXYPROGESTERONE ACETATE] |  | > 30 | > 30 | > 30 | > 30 |  |
| CN(C/C=C/c1ccccc1)Cc1cccc2ccccc12 [NAFTIFINE] | > 30 | > 30 | > 30 | > 30 |  | > 30 |
| CC(C)NCC1CCc2cc(CO)c([N+](=O)[O-])cc2N1 (stereo unspecified) [OXAMNIQUINE] | > 30 | > 10 | > 10 |  |  | > 10 |
| CN(C)CCCN1c2ccccc2Sc2ccccc21 [PROMAZINE] | 6.5 | > 30 | > 30 | > 30 | > 30 |  |
| O=C(O)CCn1c2c(c3ccccc31)C[C@H](NS(=O)(=O)c1ccc(F)cc1)CC2 [RAMATROBAN] | > 30 | > 30 | 24.8 | > 30 | > 10 | > 30 |
| O=P(O)(O)C(O)(Cc1cccnc1)P(=O)(O)O [RISEDRONIC ACID] | > 30 | > 30 | > 30 | > 30 | > 30 | > 30 |
| O=C1CCC(N2C(=O)c3ccccc3C2=O)C(=O)N1 (stereo unspecified) [THALIDOMIDE] | > 30 | > 30 | > 30 | > 30 | > 30 |  |
| CC(=O)N[C@H]1[C@H]([C@H](O)[C@H](O)CO)OC(C(=O)O)=C[C@@H]1N=C(N)N [ZANAMIVIR] | > 30 | > 30 | > 30 | > 30 |  | > 30 |
